For experiment [1], the system named is K-Ras G12C (NCI-H358 cells). The experiment in a line: Potency assay: pERK in NCI-H358 cells. The experiment is classed as cell-based, human. Particulars: Homo sapiens, read-out: pERK EC50 (H358 KRAS G12C). In short, it runs like this: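 Cells plated the day before were exposed for 4 h at 37° C, 5% CO2 to a 10-point, 3-fold DMSO dilution series (10 mM top stock), in duplicate. Phospho-ERK was read by AlphaLISA SureFire Ultra or by In-Cell Western with DRAQ5 DNA stain, and IC50 came from a 4-parameter sigmoidal fit.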

A further experiment has as its target KRAS G12C (Homo sapiens (Human), UniProt P01116+P62937, G12C). The experiment can be described thus: Ras-Raf disruption/FRET/MOA assay (BRAF RBD, Cyclophilin A). The settings on record: read-out: KRAS G12C FRET IC50. It counts as biochemical. In short, it runs like this:
(§1)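 First, 25 μM Cyclophilin A, 12.5 nM His6-Ras-GMPPNP and 50 nM GST-BRAF RBD are mixed with diluted compound at pH 7.3. Next, 3 h at 25° C. Then 10 nM anti-His Eu-W1024 plus 50 nM anti-GST allophycocyanin for 1.5 h before TR-FRET reading.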

Experiment [2] deals with K-Ras G12C(GMP-PNP) binding to BRAF RBD (Homo sapiens (Human), UniProt P01116+P62937, G12C). The experiment in a line: Disruption of BRAF RBD interaction with K-Ras (FRET / MOA assay), K-Ras G12C. The settings on record: read-out: KRAS G12C FRET IC50. It counts as biochemical. The source says:
Note—The following protocol describes a procedure for monitoring disruption of K-Ras G12C(GMP-PNP) binding to BRAF^RBD by a compound of the invention. This protocol may also be executed substituting other Ras proteins or nucleotides.
The purpose of this biochemical assay was to measure the ability of test compounds to facilitate ternary complex formation between a nucleotide-loaded K-Ras isoform and Cyclophilin A; the resulting ternary complex disrupts binding to a BRAF^RBD construct, inhibiting K-Ras signaling through a RAF effector. Data is reported as IC50 values.
Compound was present in plate wells as a 10-point 3-fold dilution series starting at a final concentration of 30 μM. After incubation at 25° C. for 3 hours, a mixture of Anti-His Eu—W1024 and anti-GST allophycocyanin was then added to assay sample wells at final concentrations of 10 nM and 50 nM, respectively, and the reaction incubated for an additional 1.5 hours. […] Compounds that facilitate disruption of a K-Ras: RAF complex were identified as those eliciting a decrease in the TR-FRET ratio relative to DMSO control wells.

In experiment [3] the test system is Capan-1 cells (K-Ras G12V). The experiment in a line: CellTiter-Glo cell viability, Capan-1. The experiment is classed as cell-based, human. Particulars: Homo sapiens, CAPAN-1, 120 h, K-Ras G12V, 5-day treatment; read-out: Capan-1 Cell Viability IC50. In short, it runs like this:
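Endpoint: CellTiter-Glo luminescence on day 5, following ~30 min at room temperature. Data as (sample/mean DMSO)×100, four-parameter logistic fit.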
For orientation: In ATP-based viability assays light output follows the ATP content of the culture.

The next experiment relates to NCI-H358 (K-Ras G12C). The experiment can be described thus: CellTiter-Glo cell viability assay, NCI-H358. The experiment is classed as cell-based, human. In short, it runs like this: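 After direct compound addition, plates were incubated to day 5 and equilibrated at room temperature for about 30 minutes before CellTiter-Glo reading. Values derive from luminescence relative to the DMSO mean, fitted with a four-parameter logistic model.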

In another experiment the target is KRAS G13D (Homo sapiens (Human), UniProt P01116+P62937, G13D). The experiment in a line: Ras-Raf disruption/FRET/MOA assay (BRAF RBD, Cyclophilin A). The experiment is classed as biochemical. The settings on record: read-out: KRAS G13D FRET data IC50. An outline of the steps: as §1
A further experiment deals with KRAS G12D (Homo sapiens (Human), UniProt P01116+P62937, G12D). Described as above. The experiment is classed as biochemical. The settings on record: read-out: KRAS G12D FRET IC50. An outline of the steps: as §1
The target of a further experiment is KRAS WT (Homo sapiens (Human), UniProt P01116+P62937). Described as above. It counts as biochemical. Particulars: read-out: KRAS WT FRET data IC50. In short, it runs like this: as §1
A further experiment addresses KRAS G13C (Homo sapiens (Human), UniProt P01116+P62937, G13C). The experiment is described as above. It counts as biochemical. Particulars: read-out: KRAS G13C FRET IC50. An outline of the steps:
as §1

The mark [4] stands for this setting: Homo sapiens, NCI-H358, 120 h, 5-day treatment, read-out: H358 Cell Viability assay data (K-Ras G12C, IC50).

Like-named read-outs stand apart in the source and are kept apart here.

K-Ras G12C(GMP-PNP) binding to BRAF RBD, sequence (P01116 other isoform, or with tags, fused parts or gaps G12C): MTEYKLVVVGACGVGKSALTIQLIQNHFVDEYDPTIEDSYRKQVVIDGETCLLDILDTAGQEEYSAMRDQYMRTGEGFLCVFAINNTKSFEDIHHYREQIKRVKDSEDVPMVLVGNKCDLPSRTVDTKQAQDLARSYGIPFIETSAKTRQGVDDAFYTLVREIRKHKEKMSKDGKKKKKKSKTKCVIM
K-Ras G12C(GMP-PNP) binding to BRAF RBD, sequence (P62937 whole entry): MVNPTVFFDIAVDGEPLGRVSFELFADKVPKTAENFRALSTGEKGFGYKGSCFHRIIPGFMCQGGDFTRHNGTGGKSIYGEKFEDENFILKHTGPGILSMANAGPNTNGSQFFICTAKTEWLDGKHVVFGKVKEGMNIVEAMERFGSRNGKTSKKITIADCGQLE
KRAS G12C, sequence (P01116-2 other isoform, or with tags, fused parts or gaps G12C): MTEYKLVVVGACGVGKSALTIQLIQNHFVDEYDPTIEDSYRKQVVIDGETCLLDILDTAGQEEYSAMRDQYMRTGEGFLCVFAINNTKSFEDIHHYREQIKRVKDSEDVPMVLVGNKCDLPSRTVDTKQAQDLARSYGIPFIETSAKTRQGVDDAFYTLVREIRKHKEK
KRAS G12C, sequence (P62937 whole entry): as the sequence (P62937 whole entry) above
KRAS G13C, sequence (P01116 other isoform, or with tags, fused parts or gaps G13C): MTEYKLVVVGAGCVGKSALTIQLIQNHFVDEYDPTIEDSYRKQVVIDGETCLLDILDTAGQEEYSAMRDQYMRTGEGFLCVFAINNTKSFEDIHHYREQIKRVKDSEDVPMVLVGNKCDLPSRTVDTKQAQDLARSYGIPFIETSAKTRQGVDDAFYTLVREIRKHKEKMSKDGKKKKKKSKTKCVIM
KRAS G13C, sequence (P62937 whole entry): as the sequence (P62937 whole entry) above
KRAS G12D, sequence (P01116 other isoform, or with tags, fused parts or gaps G12D): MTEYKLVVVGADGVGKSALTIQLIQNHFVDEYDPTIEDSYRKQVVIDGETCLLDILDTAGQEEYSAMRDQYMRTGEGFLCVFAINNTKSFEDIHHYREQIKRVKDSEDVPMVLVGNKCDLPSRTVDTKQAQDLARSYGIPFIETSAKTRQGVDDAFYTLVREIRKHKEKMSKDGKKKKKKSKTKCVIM
KRAS G12D, sequence (P62937 whole entry): as the sequence (P62937 whole entry) above
KRAS G13D, sequence (P01116 other isoform, or with tags, fused parts or gaps G13D): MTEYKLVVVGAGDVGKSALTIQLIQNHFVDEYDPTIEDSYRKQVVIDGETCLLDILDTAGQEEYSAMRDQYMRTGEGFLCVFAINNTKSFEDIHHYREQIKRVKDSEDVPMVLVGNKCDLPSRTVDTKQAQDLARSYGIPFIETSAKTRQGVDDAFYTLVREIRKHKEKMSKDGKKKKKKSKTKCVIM
KRAS G13D, sequence (P62937 whole entry): as the sequence (P62937 whole entry) above
KRAS WT, sequence (P01116 other isoform, or with tags, fused parts or gaps): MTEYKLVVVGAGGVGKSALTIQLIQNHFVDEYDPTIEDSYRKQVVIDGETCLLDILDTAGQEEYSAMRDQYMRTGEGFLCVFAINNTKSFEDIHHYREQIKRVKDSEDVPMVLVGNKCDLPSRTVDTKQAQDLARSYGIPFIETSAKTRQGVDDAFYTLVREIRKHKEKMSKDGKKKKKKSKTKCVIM
KRAS WT, sequence (P62937 whole entry): as the sequence (P62937 whole entry) above

`CCn1c(-c2cccnc2[C@H](C)OC)c2c3cc(ccc31)-c1cc(O)cc(c1)C[C@H](NC(=O)[C@H](C(C)C)N(C)C(=O)[C@@H]1CNC[C@@H]1C)C(=O)N1CCC[C@H](N1)C(=O)OCC(C)(C)C2` [Compound A128]: in experiment [1] (NCI-H358 cells, 4 hours), the EC50 (in general, the concentration needed to bring the measured effect to its halfway point) is less than 5000 nM. Also, the concentration for half-maximal inhibition (IC50) (as a rule, the point on the concentration scale where inhibition reaches its midpoint) is 10 to 100 nM on KRAS G12C, 10 to 100 nM in experiment [2], more than 10000 nM in experiment [3] and less than 0.01 µM with NCI-H358 (K-Ras G12C) (setting [4]).
In the case of `CCn1c(-c2cccnc2[C@H](C)OC)c2c3cc(ccc31)-c1cc(O)cc(c1)C[C@H](NC(=O)[C@H](C(C)C)N(C)C(=O)[C@H]1CCN(C(=O)[C@@]3(C)CCCN3)C1)C(=O)N1CCC[C@H](N1)C(=O)OCC(C)(C)C2` [Compound A135], the IC50 is less than 10 nM in [2]; 1000 to 10000 nM in experiment [3]; 0.01 to 0.1 µM with NCI-H358 (K-Ras G12C) (5-day treatment, read-out: H358 Cell Viability assay data (K-Ras G12C, IC50)); less than 0.01 µM in the experiment on NCI-H358 (K-Ras G12C) (setting [4]).
In the case of `CCn1c(-c2cccnc2[C@H](C)OC)c2c3cc(ccc31)-c1cc(O)cc(c1)C[C@H](NC(=O)[C@H](C(C)C)N(C)C(=O)C1(CN)CC1)C(=O)N1CCC[C@H](N1)C(=O)OCC(C)(C)C2` [Compound A139], the IC50 (on KRAS G13D; on KRAS G12D; on KRAS G12C; on KRAS WT; on KRAS G13C; in experiment [2]) was 10 to 100 nM in each case. Moreover, the IC50 with NCI-H358 (K-Ras G12C) (setting [4]) lay in the range of 0.1 to 1 µM.
For `CCn1c(-c2cccnc2[C@H](C)OC)c2c3cc(ccc31)-c1cc(O)cc(c1)C[C@H](NC(=O)[C@H](C(C)C)N(C)C(=O)C1(N)CC1)C(=O)N1CCC[C@H](N1)C(=O)OCC(C)(C)C2` [Compound A168], the EC50 in experiment [1] (NCI-H358, 4 h) is less than 5000 nM. For the same molecule, the IC50 in experiment [2] lay within 100 to 1000 nM; in the experiment on NCI-H358 (K-Ras G12C) (Homo sapiens, NCI-H358, 120 h, read-out: H358 Cell Viability assay data (K-Ras G12C, IC50, uM), 5-day treatment), 0.01 to 0.1 µM.
Consider `CCn1c(-c2cccnc2[C@H](C)OC)c2c3cc(ccc31)-c1cc(O)cc(c1)C[C@H](NC(=O)[C@H](C(C)C)N(C)C(=O)N1CC(N(C)C)C1)C(=O)N1CCC[C@H](N1)C(=O)OCC(C)(C)C2` [Compound A171], for which, in experiment [1] (NCI-H358 cells, 4 hours), the EC50 was less than 5000 nM. Moreover, the 50% inhibitory concentration (IC50) in experiment [2] fell in the range of 1000 to 10000 nM; in the experiment on NCI-H358 (K-Ras G12C) (setting [4]), 0.1 to 1 µM.
The corresponding values for `CCn1c(-c2cccnc2[C@H](C)OC)c2c3cc(ccc31)-c1cc(O)cc(c1)C[C@H](NC(=O)[C@@H](NC(C)=O)C(C)(C)OC)C(=O)N1CCC[C@H](N1)C(=O)OCC(C)(C)C2` [Compound A172] are less than 5000 nM, 10 to 100 nM and 0.01 to 0.1 µM.
Turning to `CCn1c(-c2cccnc2[C@H](C)OC)c2c3cc(ccc31)-c1csc(n1)C[C@H](NC(=O)[C@H](C(C)C)N(C)C(=O)N1CCN(C(=O)CN(C)C)CC1)C(=O)N1CCC[C@H](N1)C(=O)OCC(C)(C)C2` [Compound A290], the EC50 in experiment [1] (NCI-H358 cells, 4 hours) is less than 5000 nM. Also, the values for the IC50 (in [2]; with NCI-H358 (K-Ras G12C) (setting [4])) were less than 10 nM and less than 0.01 µM, respectively.
